Key:
[1] = molecular target: GST-CBP(1081-1197) bromodomain (Homo sapiens (Human), UniProt Q92793); assay: CBP AlphaScreen Assay; conditions: binding to biotin-H4(1-21) Ac-K5/8/12/16
Method: (§1) Specific binding of the CBP or BRD4 bromodomain to the acetylated peptide derived from the H4 histone substrate (tetra acetylated H4(1-21) Ac-K5/8/12/16) was measured in absence or presence of inhibitors. The GST tagged bromodomains of CBP (1081-1197) and BRD4 (49-170) were obtained from BPS Bioscience and binding to the biotinylated H4(1-21) Ac-K5/8/12/16 (AnaSpec. 64989) was assessed via AlphaScreen technology (Perkin Elmer).
(§2) 5 nM GST-CBP(1081-1197) and 20 nM biotin-H4(1-21) Ac-K5/8/12/16 (AnaSpec. 64989) were incubated with varying concentrations of CBP inhibitors in 15 μL of buffer containing 50 mM HEPES 7.5, […], 1 mM TCEP, and 0.003% Tween-20. After 30 minutes incubation at room temperature, 15 μL of detection buffer (BPS Bio. 33006) containing 7 μg/mL of Glutathione AlphaLisa acceptor beads (Perkin Elmer AL109) and 14 μg/mL of Streptavidin donor beads (Perkin Elmer 676002) was then added to the previous mixture. The reaction was incubated for an additional 2 hours at room temperature, and the AlphaScreen signal was quantified using the Envision Multilabel plate reader. As negative control, GST-CBP(1081-1197) was incubated with the non-acetylated biotin-H4(1-21) peptide(AnaSpec. 62555) and in presence of 0.25% of final DMSO concentration.
(§3) the binding of 2.5 nM of BRD4(49-170) to 10 nM biotin-H4(1-21) Ac-K5/8/12/16 (AnaSpec. 64989) was assessed following the same procedure described for the CBP assay. The standard dose response curves were fitted by Genedata Screener software using the variable-slope model: Signal=Signalnegative control+(SignalDMSO control−Signalnegative control)/(1+(IC50/Dose)^Hill slope).
(§4) Only Signal and Dose in the equation were treated as know values.

[2] = molecular target: BRD4(49-170) bromodomain (Homo sapiens (Human), UniProt O60885); assay: BRD4 AlphaScreen Assay; conditions: binding to biotin-H4(1-21) Ac-K5/8/12/16
Method: as §1, §2, §3, §4

Chain of GST-CBP(1081-1197) bromodomain (Q92793 1081-1197): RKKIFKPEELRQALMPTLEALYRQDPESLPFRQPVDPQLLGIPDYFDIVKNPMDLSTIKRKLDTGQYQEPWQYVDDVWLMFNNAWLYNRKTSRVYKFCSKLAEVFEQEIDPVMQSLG

IC50 [1]	IC50 [2]	SMILES
46 nM	729 nM	CCC1C(=O)N(C)Cc2c(-c3cccc4nc(-c5cnn(C)c5)c(C(F)F)cc34)nc(C3CCOCC3)n21 (single isomer, unassigned) [Example 64b, 1-(3-(difluoromethyl)-2-(1-methyl-1H-pyrazol-4-yl)quinolin-5-yl)-5-ethyl-7-methyl-3-(tetrahydro-2H-pyran-4-yl)-7,8-dihydroimidazo[1,5-a] pyrazin-6(5H)-one]
271 nM	11700 nM	CC1C(=O)N(C)Cc2c(-c3cccc4nc(-c5cnn(C)c5)c(C(F)(F)F)cc34)nc(C3CCOCC3)n21 (single isomer, unassigned) [Example 26b, 5,7-Dimethyl-1-(2-(1-methyl-1H-pyrazol-4-yl)-3-(trifluoromethyl)quinolin-5-yl)-3-(tetrahydro-2H-pyran-4-yl)-7,8-dihydroimidazo[1,5-a]pyrazin-6(5H)-one]
9 nM	5700 nM	CN1Cc2c(N3CCCc4cc(-c5cnn(C)c5)c(C(F)F)cc43)nc(C3CC3)n2CC1=O [Example 106, 3-cyclopropyl-1-(7-(difluoromethyl)-6-(1-methyl-1H-pyrazol-4-yl)-3,4-dihydroquinolin-1(2H)-yl)-7-methyl-7,8-dihydroimidazo[1,5-a] pyrazin-6(5H)-one]
2460 nM	≥ 25000 nM	CC1C(=O)N(C)Cc2c(-c3c(F)ccc4cc(C5CCOCC5)ncc34)nc(C3CCOCC3)n21 (single isomer, unassigned) [Example 34a, 1-(7-Fluoro-3-(tetrahydro-2H-pyran-4-yl)isoquinolin-8-yl)-5,7-dimethyl-3-(tetrahydro-2H-pyran-4-yl)-7,8-dihydroimidazo[1,5-a]pyrazin-6(5H)-one]
4 nM	879 nM	CC1C(=O)N(C)Cc2c(-c3c(F)ccc4cc(-c5ccn(C)n5)ncc34)nc(C3CCOCC3)n21 (single isomer, unassigned) [Example 90b, 1-(7-fluoro-3-(1-methyl-1H-pyrazol-3-yl)isoquinolin-8-yl)-5,7-dimethyl-3-(tetrahydro-2H-pyran-4-yl)-7,8-dihydroimidazo[1,5a] pyrazin-6(5H)-one]
1 nM	112 nM	CC1C(=O)N(C)Cc2c(-c3cccc4nc(-c5noc(=O)[nH]5)c(C(F)F)cc34)nc(C3CC3)n21 (single isomer, unassigned) [Example 45a, 3-(5-(3-Cyclopropyl-5,7-dimethyl-6-oxo-5,6,7,8-tetrahydroimidazo[1,5-a]pyrazin-1-yl)-3-(difluoromethyl)quinolin-2-yl)-1,2,4-oxadiazol-5(4H)-one]
45 nM	2560 nM	CC(=O)N1CCC(c2nc(-c3cccc4nc(-c5cnn(C)c5)c(C(F)F)cc34)c3n2C(C)C(=O)N(C)C3)CC1 (centres unmarked) [Example 80, 3-(1-acetylpiperidin-4-yl)-1-(3-(difluoromethyl)-2-(1-methyl-1H-pyrazol-4-yl)quinolin-5-yl)-5,7-dimethyl-7,8-dihydroimidazo[1,5-a] pyrazin-6(5H)-one]
2 nM	187 nM	Cc1ncc(-c2cc3cccc(-c4nc(C5CC5)n5c4CN(C)C(=O)C5C)c3cn2)s1 (centres unmarked) [Example 13, 3-Cyclopropyl-5,7-dimethyl-1-(3-(2-methylthiazol-5-yl)isoquinolin-8-yl)-7,8-dihydroimidazo[1,5-a]pyrazin-6(5H)-one]
170 nM	19700 nM	CC1C(=O)N(C)Cc2c(-c3cccc4cc(C5CCOCC5)ncc34)nc(C3CCOCC3)n21 (single isomer, unassigned) [Example 15a, 5,7-dimethyl-3-(tetrahydro-2H-pyran-4-yl)-1-(3-(tetrahydro-2H-pyran-4-yl)isoquinolin-8-yl)-7,8-dihydroimidazo[1,5-a]pyrazin-6(5H)-one]
3 nM	319 nM	Cc1ncn(-c2nc3cccc(-c4nc(C5CC5)n5c4CN(C)C(=O)C5C)c3cc2C(F)F)n1 (centres unmarked) [Example 67, 3-cyclopropyl-1-(3-(difluoromethyl)-2-(3-methyl-1H-1,2,4-triazol-1-yl)quinolin-5-yl)-5,7-dimethyl-7,8-dihydroimidazo[1,5-a] pyrazin-6(5H)-one]
302 nM	4860 nM	Cc1ncc(-c2cc3ccc(C)c(-c4nc(C5CCOCC5)n5c4CN(C)C(=O)C5C)c3cn2)s1 (single isomer, unassigned) [Example 38b]
34 nM	2890 nM	CC1C(=O)N(C)Cc2c(-c3cccc4nc(-c5cnn(C)c5)c(C(F)F)cc34)nc(C3CCN(CC(F)(F)F)CC3)n21 (centres unmarked) [Example 77, 1-(3-(difluoromethyl)-2-(1-methyl-1H-pyrazol-4-yl)quinolin-5-yl)-5,7-dimethyl-3-(1-(2,2,2-trifluoroethyl)piperidin-4-yl)-7,8-dihydroimidazo [1,5-a] pyrazin-6(5H)-one]
2430 nM	25000 nM	CCC1C(=O)N(C)Cc2c(-c3cccc4nc(-c5cnn(C)c5)c(C(F)F)cc34)nc(C3CCOCC3)n21 (single isomer, unassigned) [Example 64a, 1-(3-(difluoromethyl)-2-(1-methyl-1H-pyrazol-4-yl)quinolin-5-yl)-5-ethyl-7-methyl-3-(tetrahydro-2H-pyran-4-yl)-7,8-dihydroimidazo[1,5-a] pyrazin-6(5H)-one]
42 nM	3230 nM	CC1C(=O)N(C)Cc2c(-c3cccc4nc(-c5cnn(C)c5)c(C(F)F)cc34)nc(C3CCN(S(C)(=O)=O)CC3)n21 (centres unmarked) [Example 83, 1-(3-(difluoromethyl)-2-(1-methyl-1H-pyrazol-4-yl)quinolin-5-yl)-5,7-dimethyl-3-(1-(methylsulfonyl)piperidin-4-yl)-7,8-dihydroimidazo[1,5-a] pyrazin-6(5H)-one]
482 nM	20800 nM	C[C@H]1C(=O)N(C)Cc2c(-c3cccc4nc(-c5ccn(C)n5)c(C(F)F)cc34)nc(C3CCOCC3)n21 [Example 89b, (S)-1-(3-(difluoromethyl)-2-(1-methyl-1H-pyrazol-3-yl)quinolin-5-yl)-5,7-dimethyl-3-(tetrahydro-2H-pyran-4-yl)-7,8-dihydroimidazo[1,5-a] pyrazin-6(5H)-one]
114 nM	18300 nM	CN1Cc2c(-c3cccc4nc(-c5cnn(C)c5)c(C(F)F)cc34)nc(C3CC3)n2CC1=O [Example 108, 3-cyclopropyl-1-(3-(difluoromethyl)-2-(1-methyl-1H-pyrazol-4-yl)quinolin-5-yl)-7-methyl-7,8-dihydroimidazo[1,5-a] pyrazin-6(5H)-one]
2250 nM	25000 nM	Cn1cc(-c2cc3cccc(-c4nc(C5CC5)n5c4CN(CCO)C(=O)C5)c3cn2)cn1 [Example 6, 3-Cyclopropyl-7-(2-hydroxyethyl)-1-(3-(1-methyl-1H-pyrazol-4-yl)isoquinolin-8-yl)-7,8-dihydroimidazo[1,5-a]pyrazin-6(5H)-one]
6500 nM	≥ 25000 nM	CC1C(=O)N(C)Cc2c(-c3cccc4nc(-c5cnn(C)c5)c(C(F)F)cc34)nc(C3CCS(=O)(=O)CC3)n21 (single isomer, unassigned) [Example 29a, 1-(3-(Difluoromethyl)-2-(1-methyl-1H-pyrazol-4-yl)quinolin-5-yl)-3-(1,1-dioxidotetrahydro-2H-thiopyran-4-yl)-5,7-dimethyl-7,8-dihydroimidazo[1,5-a]pyrazin-6(5H)-one]
29 nM	5400 nM	CC1C(=O)N(C)Cc2c(-c3cccc4nc(-c5noc(=O)[nH]5)c(C(F)F)cc34)nc(C3CC3)n21 (single isomer, unassigned) [Example 45b, 3-(5-(3-Cyclopropyl-5,7-dimethyl-6-oxo-5,6,7,8-tetrahydroimidazo[1,5-a]pyrazin-1-yl)-3-(difluoromethyl)quinolin-2-yl)-1,2,4-oxadiazol-5(4H)-one]
159 nM	2960 nM	CC1C(=O)N(C)Cc2c(-c3ccc4ccncc4c3)nc(C3CC3)n21 (centres unmarked) [Example 53, 3-cyclopropyl-1-(isoquinolin-7-yl)-5,7-dimethyl-7,8-dihydroimidazo[1,5-a] pyrazin-6(5H)-one]
29 nM	6820 nM	CN1Cc2c(-c3ccc4c(c3)c(-c3cnn(C)c3)nn4C)nc(C3CC3)n2CC1=O [Example 107, 3-cyclopropyl-7-methyl-1-(1-methyl-3-(1-methyl-1H-pyrazol-4-yl)-1H-indazol-5-yl)-7,8-dihydroimidazo [1,5-a] pyrazin-6(5H)-one]
2 nM	51 nM	CC1C(=O)N(C)Cc2c(-c3cccc4nc(C5CCOCC5)c(C(F)F)cc34)nc(C3CC3)n21 (centres unmarked) [Example 10, 3-Cyclopropyl-1-(3-(difluoromethyl)-2-(tetrahydro-2H-pyran-4-yl)quinolin-5-yl)-5,7-dimethyl-7,8-dihydroimidazo[1,5-a]pyrazin-6(5H)-one]

From patent US10899769B2, “Imidazopiperazinone inhibitors of transcription activating proteins” (Board of Regents, The University of Texas System, priority 2018, dated 2021)
